Results from PubChem BioAssay (NCI).
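1) Cells in 96-well plates. 2) Compound, 48 h, 5 concentrations. 3) Linear interpolation between surrounding doses. 4) Unreached endpoint = highest concentration. Abbreviation: GI50, concentration required for 50% inhibition of growth. Definition used: TGI = concentration required for complete inhibition of growth.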

Tests used:
Assay in all cases: inhibition of tumour cell growth, NCI panel, 48 h
A498 renal = test system: A498 renal
A549 NSCLC = test system: A549 NSCLC
DU-145 prostate = test system: DU-145 prostate
HOP-62 NSCLC = test system: HOP-62 NSCLC
HS 578T breast = test system: HS 578T breast
KM12 colon = test system: KM12 colon
MDA-MB-435 = test system: MDA-MB-435
NCI-H226 lung = test system: NCI-H226 lung
NCI-H460 lung = test system: NCI-H460 lung
NCI/ADR-RES ovarian = test system: NCI/ADR-RES ovarian
OVCAR-5 ovarian = test system: OVCAR-5 ovarian
SF-295 CNS = test system: SF-295 CNS
SF-539 CNS = test system: SF-539 CNS
SK-MEL-2 melanoma = test system: SK-MEL-2 melanoma
SK-OV-3 ovarian = test system: SK-OV-3 ovarian
SNB-19 CNS = test system: SNB-19 CNS
SNB-75 CNS = test system: SNB-75 CNS
U251 CNS = test system: U251 CNS
UACC-62 melanoma = test system: UACC-62 melanoma
CAKI-1 renal = test system: CAKI-1 renal
K-562 leukemia = test system: K-562 leukemia
M14 melanoma = test system: M14 melanoma
MALME-3M melanoma = test system: MALME-3M melanoma
SK-MEL-5 melanoma = test system: SK-MEL-5 melanoma

C#CCn1c(=O)c(I)cn(/C(=C\C(=O)OCC)C(=O)OCC)c1=O
TGI (A498 renal): 31.9 µM
TGI (A549 NSCLC): > 100 µM
TGI (DU-145 prostate): 31.3 µM
TGI (HOP-62 NSCLC): 33.6 µM
TGI (HS 578T breast): > 100 µM
TGI (KM12 colon): 31.7 µM
TGI (MDA-MB-435): 30.9 µM
TGI (NCI-H226 lung): 38.2 µM
TGI (NCI-H460 lung): 39.9 µM
TGI (NCI/ADR-RES ovarian): 65.1 µM
TGI (OVCAR-5 ovarian): 40.2 µM
TGI (SF-295 CNS): 36.8 µM
TGI (SF-539 CNS): 33.4 µM
TGI (SK-MEL-2 melanoma): 37.2 µM
TGI (SK-OV-3 ovarian): 31.8 µM
TGI (SNB-19 CNS): 64 µM
TGI (SNB-75 CNS): 30.9 µM
TGI (U251 CNS): 29.1 µM
TGI (UACC-62 melanoma): 30.6 µM

C=C(C)[C@@H]1CC[C@]2(C)[C@H](CC=C3[C@@H]4CC(C)(C)CC[C@]4(CO)CC[C@]32C)[C@@]1(C)CCCN
GI50 (A498 renal): 1490 nM
TGI (A498 renal): 2.81 µM
GI50 (CAKI-1 renal): 1730 nM
TGI (CAKI-1 renal): 3.1 µM
GI50 (K-562 leukemia): 2170 nM
TGI (K-562 leukemia): 8.26 µM
GI50 (M14 melanoma): 1650 nM
TGI (M14 melanoma): 3.1 µM
GI50 (MALME-3M melanoma): 1550 nM
TGI (MALME-3M melanoma): 2960 nM
GI50 (MDA-MB-435): 1620 nM
TGI (MDA-MB-435): 2.98 µM
GI50 (NCI-H226 lung): 5.31 µM
TGI (NCI-H226 lung): 27.7 µM
GI50 (SF-539 CNS): 1650 nM
TGI (SF-539 CNS): 3.02 µM
GI50 (SK-MEL-2 melanoma): 1980 nM
TGI (SK-MEL-2 melanoma): 3.58 µM
GI50 (SK-MEL-5 melanoma): 1680 nM
TGI (SK-MEL-5 melanoma): 3.05 µM
GI50 (SK-OV-3 ovarian): 1880 nM
TGI (SK-OV-3 ovarian): 3.33 µM
GI50 (UACC-62 melanoma): 1680 nM
TGI (UACC-62 melanoma): 3.05 µM
